# Literature values as cited in patent US20240100062A1, “Methods of Treatment With an Iboga Alkaloid” (priority 2022, published 2024).
# Key:
# [1] = in vivo; cited from earlier work
# [2] = system: N-methyl-D-aspartate, kappa and mu opioid, sigma-1 and -2, nicotinic acetylcholine, serotonin transporter, and dopamine transporter; details: cited from earlier work
substance,measurement,setting,value
Noribogaine,half-life,[1],28 to 49 h
same,Affinity for neurotransmitter receptors,[2],moderate-to-weak affinity
